Assay results published in article PMC11435393, “Novel Pyrrole Derivatives as Multi-Target Agents for the Treatment of Alzheimer’s Disease: Microwave-Assisted Synthesis, In Silico Studies and Biological Evaluation” (Pharmaceuticals, 2024).
Several values for one entry are separate records, joined by “and”; a condition that tells them apart may be missing. Equal entries are not always repeated. Structures can show the parent of a compound that is named as a salt.

Tests used:
[1] = ABTS radical scavenging assay; details: 1 mg/mL, 734 nm
Description: The radical scavenging properties of the newly synthesized structures were also calculated with the help of a ABTS test according to a modified method of Arnao et al.. The tests were conducted in methanol at room temperature. The absorbance of the solutions was measured at λ = 734 nm. The stable ABTS radical was produced by mixing 7 mmol/L solution of ABTS and 2.4 mmol/L solution of potassium persulphate, which were allowed to react for 14 h in the dark at room temperature. The working solutions were made of 2 mL of the stock solution diluted in 50 mL of methanol with an absorbance of 0.30 ± 0.04 units at […]. In total, 1 mL of the ABTS working solution was allowed to react with the pyrrole derivatives with concentrations of 1 mg/mL for 10 min. The inhibition percentage was calculated by applying the same formula as the DPPH assay.

human recombinant MAOB = molecular target: T1, human recombinant MAOB (Homo sapiens, UniProt P27338); assay: biochemical; type: biochemical; details: for IC50: mean ± SD, 2 h exposure, read-out: IC50 (EC50) hMAOB; for hMAOB inhibition (decrease of hMAOB activity vs control): 1 μM
T1 sequence (P27338 1-520): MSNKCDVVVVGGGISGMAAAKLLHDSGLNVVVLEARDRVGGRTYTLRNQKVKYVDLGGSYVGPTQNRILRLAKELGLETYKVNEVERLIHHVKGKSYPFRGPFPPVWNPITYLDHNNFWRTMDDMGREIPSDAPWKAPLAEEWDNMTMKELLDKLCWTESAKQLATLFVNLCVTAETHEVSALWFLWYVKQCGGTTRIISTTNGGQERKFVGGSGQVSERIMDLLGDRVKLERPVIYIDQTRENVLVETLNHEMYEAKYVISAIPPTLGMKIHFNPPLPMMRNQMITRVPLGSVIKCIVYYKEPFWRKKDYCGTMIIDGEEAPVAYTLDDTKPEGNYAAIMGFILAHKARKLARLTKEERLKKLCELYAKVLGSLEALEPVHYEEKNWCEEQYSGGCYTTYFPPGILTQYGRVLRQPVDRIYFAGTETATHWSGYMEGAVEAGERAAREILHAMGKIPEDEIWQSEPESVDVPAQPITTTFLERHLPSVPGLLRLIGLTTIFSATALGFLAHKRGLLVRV
Description: The title compounds were tested for hMAOB activities by an in vitro method.
(§1) The examined compounds were evaluated for possible inhibitory capacity on human recombinant MAOA and MAOB enzymes by using the Amplex UltraRed (Sigma Aldrih and Acros, Merck KGaA, Darmstadt, Germany) reagent with some modifications. All reagents were prepared in accordance with the producer’s instructions. As a substrate the tyramine hydrochloride was used for hMAO-B and p-benzylamine for hMAO-A. The reaction mixture included a stock solution of Amplex Red, the reaction buffer at pH 7.4 and the storage solution of horseradish peroxidase (10 U/mL). Five concentrations of the exam compounds were applied. The combination: compounds + hMAOA/B was placed in a 96-well plate, and then the plate was incubated for 30 min (dark, at 37 °C). The reaction was started by the addition of 50 μL of the mix solution: Amplex Red, horseradish peroxidase, and tyramine/p-benzylamine, as an enzyme substrate, in the reaction buffer. The fluorescence was measured every 30 min until 150 min, in dark, while shaking the reaction mixture at constant temperature of 37 °C. The fluorimetric measurements were assessed using a Synergy 2 Microplate Reader (BioTek, Winooski, VT, USA).
(§2) The in vitro results (MAO-A, MAO-B and AChE inhibitory capacities) were expressed as a mean ± SD (n = 3). Values of p < 0.05 were considered statistically significant.

human recombinant MAOA = molecular target: T2, human recombinant MAOA (Homo sapiens, UniProt P21397); assay: hMAOA enzyme assay (Amplex UltraRed, fluorimetric); type: biochemical; details: mean ± SD; read-out: IC50 (EC50) hMAOA
T2 sequence (P21397 1-527): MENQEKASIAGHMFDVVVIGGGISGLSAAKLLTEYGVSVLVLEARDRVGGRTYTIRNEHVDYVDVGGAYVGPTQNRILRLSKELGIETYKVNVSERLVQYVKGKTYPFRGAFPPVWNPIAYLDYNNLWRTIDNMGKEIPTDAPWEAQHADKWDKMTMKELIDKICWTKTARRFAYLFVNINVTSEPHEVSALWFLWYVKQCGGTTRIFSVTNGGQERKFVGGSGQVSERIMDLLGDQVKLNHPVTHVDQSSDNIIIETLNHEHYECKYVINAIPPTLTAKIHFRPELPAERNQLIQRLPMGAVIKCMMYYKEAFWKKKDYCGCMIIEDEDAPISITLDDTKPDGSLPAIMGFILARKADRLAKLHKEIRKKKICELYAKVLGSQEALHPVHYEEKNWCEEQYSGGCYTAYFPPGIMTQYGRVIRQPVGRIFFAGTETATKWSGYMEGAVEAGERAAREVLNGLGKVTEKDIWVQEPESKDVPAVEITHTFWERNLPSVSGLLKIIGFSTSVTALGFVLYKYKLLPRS
Description: To observe the selectivity index of the title compounds, in vitro tests against MAO-A were carried out. The novel molecules were tested in the same concentrations as applied in the MAO-B evaluations—1 μM.
as §1, §2

eeAChE = eeAChE (Electrophorus electricus, UniProt O42275); assay: biochemical; details: for AChE inhibition / inhibition at 10 µM: 10 μM; for inhibition at 10 µM: read-out: AChE inhibition; for IC50 / IC50 (EC50) AChE: mean ± SD; for IC50: read-out: IC50 (EC50) AChE
Description: The AChE potentials of the new valine-based molecules were evaluated according to a modified Ellman’s method. Initially, stock solutions (1 mg/mL) of the new structures were diluted in DMSO and five solutions were prepared by dilutions in order to access the inhibitory potential in different concentrations. Thereafter, the pyrrole-based molecules were incubated with sodium phosphate buffer, and AChE solution for ten minutes at 37 °C. The reaction was started by the addition of 5,5-dithio-bis-(2-nitrobenzoic acid) (DTNB) (10 mM; 20 μL) and acetylthiocholine iodide (14 mM; 20 μL). […] The percent inhibition activity was measured against the blank probe. Donepezil was utilized as a standart acetylcholinesterase inhibitor. The results were expressed as a mean ± SD (n = 3). Values of p < 0.05 were observed as statistically significant.
as §2

[2] = DPPH radical scavenging assay; details: 1 mg/mL, 517 nm
Description: The test observes the hydrogen donating capacity of the molecules which is shown with a decrease in the absorbance at 517 nm. The DPPH radical scavenging activity of the title hydrazide vh0 and hydrazide–hydrazones vh1-4 was determined in 1 mg/mL concentration with Trolox applied as a standard.
The radical scavenging activities of the title compounds were examined with a DPPH (2,2- diphenyl-1-picrylhydrazyl) test. A solution of DPPH has an intense violet color and a UV absorption at 515 nm could be observed. The presence of an antioxidant leads to visible decolorization of the sample and the absorption could be measured. Here, the scavenging rate of the DPPH radical was carried out by the widely employed classical protocol of Brand-Williams et al.. A 1 mg/mL of the title compounds were reacted with methonol solution of the DPPH (1 mmol/L). Thereafter, the obtained mixture was left in a dark palce for 15 min. The absorbance was assessed at 517 nm. Three measurements were conducted for each sample and Trolox was used as a standard.

[3] = PAMPA-BBB permeability test
Description: Thus, the passive diffusion of vh0 was evaluated using an in vitro permeability test.
The in vitro Parallel Artificial Permeability Assay—blood brain barrier (PAMPA-BBB) test was carried out by PAMPA Permeability Analyzer (pIONInc, Billerica, MA, USA). The permeabilities (Pe) of the dual-acting pyrrole-based hydrazide—vh0, were evaluated considering the manufacturer BBB Protocol. Initially, the stock solutions of vh0 and reference molecules were dissolved in DMSO and diluted with Prisma HT buffer pH 7.4 (Pion Inc. Billerica, MA, USA) to reach a concentration of 50 μM. The well plates were filled with 200 µL BSB (Brain Skin Buffer). The incubation was established for 4 h at 25 °C with no stirring. The permeability of the structures was evaluated by accessing their concentrations in both the donor and acceptor phases spectrophotometrically. The permeability coefficients were calculated by PAMPA Explorer Command Software and presented as –logPe.

[4] = cited from earlier work

Sequence of eeAChE (O42275 24-633): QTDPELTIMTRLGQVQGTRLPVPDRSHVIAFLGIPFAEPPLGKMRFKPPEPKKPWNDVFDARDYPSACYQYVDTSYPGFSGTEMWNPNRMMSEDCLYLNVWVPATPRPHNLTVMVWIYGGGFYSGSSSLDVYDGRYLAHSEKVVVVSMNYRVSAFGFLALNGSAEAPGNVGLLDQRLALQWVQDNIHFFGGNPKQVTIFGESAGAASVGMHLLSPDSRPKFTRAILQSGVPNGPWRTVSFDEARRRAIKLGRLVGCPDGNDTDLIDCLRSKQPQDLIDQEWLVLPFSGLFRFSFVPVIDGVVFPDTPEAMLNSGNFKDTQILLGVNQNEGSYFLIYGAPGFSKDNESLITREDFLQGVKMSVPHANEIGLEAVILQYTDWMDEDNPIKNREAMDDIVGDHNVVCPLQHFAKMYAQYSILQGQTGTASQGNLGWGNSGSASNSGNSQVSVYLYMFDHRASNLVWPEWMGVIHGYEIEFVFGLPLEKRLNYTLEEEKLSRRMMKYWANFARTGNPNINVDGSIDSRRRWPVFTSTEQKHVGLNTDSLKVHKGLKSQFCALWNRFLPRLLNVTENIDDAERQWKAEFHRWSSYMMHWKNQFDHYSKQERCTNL

Compound: CCOC(=O)c1cc(-c2ccc(Br)cc2)n(C(C(=O)N/N=C/c2ccc(OC)cc2)C(C)C)c1C (stereo not drawn) [vh3]
- ABTS radical-binding activity [1]: 58.27%
- SI: hMAOB selectivity index = IC50(hMAO-A)/IC50(hMAO-B) (human recombinant MAOB): >1
- IC50 (human recombinant MAOB): > 100 µM
- IC50 (human recombinant MAOA): > 100 µM
- AChE inhibition (eeAChE): weak AChE blocking activity
- inhibition at 10 µM (eeAChE): 26%
- IC50 (eeAChE): 16.3 ± 2.15 µM

Compound: Cc1c(C)c2c(c(C)c1O)CCC(C)(C(=O)O)O2 (stereo not drawn) [Trolox, reference compound]
- ABTS radical-binding activity [1]: 100%
- DPPH radical scavenging activity [2]: 90.07%

Compound: CCOC(=O)c1cc(-c2ccc(Br)cc2)n(C(C(=O)N/N=C/c2ccc(OC)cc2OC)C(C)C)c1C (stereo not drawn) [vh4]
- SI: hMAOB selectivity index = IC50(hMAO-A)/IC50(hMAO-B) (human recombinant MAOB): >1
- IC50 (human recombinant MAOB): > 100 µM
- IC50 (human recombinant MAOA): > 100 µM
- IC50 (EC50) AChE (eeAChE): inactive
- IC50 (eeAChE): > 100 µM

Compound: CCOC(=O)c1cc(-c2ccc(Br)cc2)n(C(C(=O)N/N=C/c2ccc(Cl)cc2)C(C)C)c1C (stereo not drawn) [vh1]
- ABTS radical-binding activity [1]: 73.67%
- SI: hMAOB selectivity index = IC50(hMAO-A)/IC50(hMAO-B) (human recombinant MAOB): >134
- hMAOB inhibition (decrease of hMAOB activity vs control) (human recombinant MAOB): moderate activity
- IC50 (human recombinant MAOB): 0.744 ± 0.18 µM
- IC50 (human recombinant MAOA): > 100 µM
- inhibition at 10 µM (eeAChE): 19%
- IC50 (eeAChE): 18.8 ± 0.91 µM

Compound: CC(C)NCC(O)COc1cccc2ccccc12 (stereo not drawn) [Propranolol HCl, propranolol hydrochloride, reference compound]
- PAMPA BBB −logPe ([3]; PAMPA, 4 h, 50 μM, pH 7.4): 4.949 ± 0.003
- PAMPA BBB −logPe Literature [4]: 3.7

Compound: CCOC(=O)c1cc(-c2ccc(Br)cc2)n(C(C(=O)NN)C(C)C)c1C (stereo not drawn) [vh0]
- BBB permeability class ([3]; PAMPA-BBB): medium (When 6 < –logPe < 5 the molecule is identified with a medium permeability)
- PAMPA BBB −logPe ([3]; pH 7.4, 50 μM, 4 h at 25 °C): 5.451 and 5.451 ± 0.005
- ABTS radical-binding activity [1]: 99.40%
- DPPH radical scavenging activity [2]: 76.10%
- SI: hMAOB selectivity index = IC50(hMAO-A)/IC50(hMAO-B) (human recombinant MAOB): >150
- hMAOB inhibition (decrease of hMAOB activity vs control) (human recombinant MAOB): 30%
- IC50 (human recombinant MAOB): 0.665 ± 0.2 µM
- IC50 (human recombinant MAOA): > 100 µM
- inhibition at 10 µM (eeAChE): 62%
- IC50 (eeAChE): 4.15 ± 1.31 µM

Compound: CCOC(=O)c1cc(-c2ccc(Br)cc2)n(C(C(=O)N/N=C/c2cccc(F)c2)C(C)C)c1C (stereo not drawn) [vh2]
- SI: hMAOB selectivity index = IC50(hMAO-A)/IC50(hMAO-B) (human recombinant MAOB): >1
- IC50 (human recombinant MAOB): > 100 µM
- IC50 (human recombinant MAOA): > 100 µM
- AChE inhibition (eeAChE): weak AChE blocking activity
- IC50 (EC50) AChE (eeAChE): inactive
- IC50 (eeAChE): > 100 µM
